Reference: ChEMBL document CHEMBL4619709, “Synthesis and in-vitro anti-cancer evaluations of multi-methoxylated asymmetrical diarylpentanoids as intrinsic apoptosis inducer against colorectal cancer” (Bioorg Med Chem Lett, 2020)
Active and inactive are the calls of the source. No cut-off for these calls is given here.

Experiments:
RKO [1] = test: Induction of cell cycle arrest in human RKO cells assessed as accumulation at G2/M phase at 1.25 uM after 24 hrs by PI-staining based flow cytometry (reference value: 20%); type: functional
RKO [2] = test: Induction of apoptosis in human RKO cells assessed as reduction in bcl-xl expression after 24 hrs by Western blot analysis; type: functional, cell-based
LoVo [3] = test: Antiproliferative activity against human LoVo cells at 10 uM after 72 hrs by MTT assay; type: functional, cell-based
[4] = Therapeutic index, ratio of IC50 for human NHDF cells to IC50 for human LoVo cells after 72 hrs; type: toxicity; conditions: NHDF cells versus LoVo cells, read-out: Ratio IC50
[5] = Therapeutic index, ratio of IC50 for human NHDF cells to IC50 for human RKO cells after 72 hrs; type: toxicity; conditions: NHDF cells versus RKO cells, read-out: Ratio IC50
RKO [6] = test: Induction of apoptosis in human RKO cells assessed as increase in bad protein expression after 24 to 72 hrs by Western blot analysis; type: functional, cell-based
RKO [7] = test: Induction of apoptosis in human RKO cells assessed as increase in caspase-9 expression after 24 to 72 hrs by Western blot analysis; type: functional, cell-based
HT-29 [8] = test: Antiproliferative activity against human HT-29 cells at 10 uM after 72 hrs by MTT assay; type: functional, cell-based
RKO [9] = test: Induction of cell cycle arrest in human RKO cells assessed as accumulation at S phase at 2.5 uM after 24 hrs by PI-staining based flow cytometry (reference value: 28%); type: functional
RKO [10] = test: Induction of apoptosis in human RKO cells assessed as reduction in bcl-xl expression after 72 hrs by Western blot analysis; type: functional, cell-based
LoVo [11] = test: Antiproliferative activity against human LoVo cells assessed as reduction in cell viability after 72 hrs by MTT assay; type: functional, cell-based
RKO [12] = test: Induction of cell cycle arrest in human RKO cells assessed as accumulation at G2/M phase at 2.5 uM after 24 hrs by PI-staining based flow cytometry (reference value: 20%); type: functional
T84 [13] = test: Antiproliferative activity against human T84 cells assessed as reduction in cell viability after 72 hrs by MTT assay; type: functional, cell-based; conditions: T84, 72 h
RKO [14] = test: Induction of apoptosis in human RKO cells assessed as reduction in procaspase-7 expression after 24 to 72 hrs by Western blot analysis; type: functional, cell-based
[15] = Therapeutic index, ratio of IC50 for human NHDF cells to IC50 for human HT-29 cells after 72 hrs; type: toxicity; conditions: NHDF cells versus HT-29 cells, read-out: Ratio IC50
RKO [16] = test: Induction of cell cycle arrest in human RKO cells assessed as accumulation at G2/M phase at 0.625 uM after 24 hrs by PI-staining based flow cytometry (reference value: 20%); type: functional
SW-620 [17] = test: Antiproliferative activity against human SW620 cells assessed as reduction in cell viability after 72 hrs by MTT assay; type: functional, cell-based; conditions: SW-620, 72 h
[18] = Therapeutic index, ratio of IC50 for human NHDF cells to IC50 for human SW620 cells after 72 hrs; type: toxicity; conditions: NHDF cells versus SW620 cells, read-out: Ratio IC50
SW-620 [19] = test: Antiproliferative activity against human SW620 cells at 10 uM after 72 hrs by MTT assay; type: functional, cell-based
RKO [20] = test: Induction of apoptosis in human RKO cells assessed as reduction in bcl-2 expression after 24 hrs by Western blot analysis; type: functional, cell-based
RKO [21] = test: Induction of cell cycle arrest in human RKO cells assessed as accumulation at G0/G1 phase at 0.625 uM after 24 hrs by PI-staining based flow cytometry (reference value: 52%); type: functional
[22] = Therapeutic index, ratio of IC50 for human NHDF cells to IC50 for human NCI-H508 cells after 72 hrs; type: toxicity; conditions: NHDF cells versus NCI-H508 cells, read-out: Ratio IC50
RKO [23] = test: Induction of apoptosis in human RKO cells assessed as reduction in procaspase-9 expression after 24 to 72 hrs by Western blot analysis; type: functional, cell-based
T84 [24] = test: Antiproliferative activity against human T84 cells at 10 uM after 72 hrs by MTT assay; type: functional, cell-based
RKO [25] = test: Antiproliferative activity against human RKO cells assessed as reduction in cell viability after 72 hrs by MTT assay; type: functional, cell-based
RKO [26] = test: Antiproliferative activity against human RKO cells at 10 uM after 72 hrs by MTT assay; type: functional, cell-based
RKO [27] = test: Induction of cell cycle arrest in human RKO cells assessed as accumulation at G0/G1 phase at 1.25 uM after 24 hrs by PI-staining based flow cytometry (reference value: 52%); type: functional
RKO [28] = test: Induction of cell cycle arrest in human RKO cells assessed as accumulation at S phase at 1.25 uM after 24 hrs by PI-staining based flow cytometry (reference value: 28%); type: functional
NCI-H508 [29] = test: Antiproliferative activity against human NCI-H508 cells at 10 uM after 72 hrs by MTT assay; type: functional, cell-based
RKO [30] = test: Inhibition of colony formation in human RKO cells at 0.625 uM treated for 9 days by crystal violet staining based assay; type: functional, cell-based
RKO [31] = test: Induction of cell cycle arrest in human RKO cells assessed as accumulation at S phase at 0.625 uM after 24 hrs by PI-staining based flow cytometry (reference value: 28%); type: functional
RKO [32] = test: Inhibition of colony formation in human RKO cells after 9 days by crystal violet staining based assay; type: functional, cell-based
NHDF = test: Cytotoxicity against human NHDF cells assessed as reduction in cell viability; type: cell-based
RKO [33] = test: Induction of ROS generation in human RKO cells by fluorescence based assay; type: functional, cell-based
NCI-H508 [34] = test: Antiproliferative activity against human NCI-H508 cells assessed as reduction in cell viability after 72 hrs by MTT assay; type: functional, cell-based; conditions: NCI-H508, 72 h
[35] = Therapeutic index, ratio of IC50 for human NHDF cells to IC50 for human T84 cells after 72 hrs; type: toxicity; conditions: NHDF cells versus T84 cells, read-out: Ratio IC50
RKO [36] = test: Induction of cell cycle arrest in human RKO cells assessed as accumulation at G0/G1 phase at 2.5 uM after 24 hrs by PI-staining based flow cytometry (reference value: 52%); type: functional
RKO [37] = test: Induction of apoptosis in human RKO cells after 24 to 72 hrs by Annexin V-FITC/PI staining based flow cytometry; type: functional, cell-based
RKO [38] = test: Induction of apoptosis in human RKO cells at 0.625 to 5 uM after by Annexin V-FITC/PI staining based flow cytometry; type: functional, cell-based; conditions: TDE = time-dependent effect
RKO [39] = test: Induction of apoptosis in human RKO cells assessed as increase in bax protein expression after 24 to 72 hrs by Western blot analysis; type: functional, cell-based
HT-29 [40] = test: Antiproliferative activity against human HT-29 cells assessed as reduction in cell viability after 72 hrs by MTT assay; type: functional, cell-based; conditions: HT-29, 72 h
RKO [41] = test: Inhibition of colony formation in human RKO cells at 1.25 to 5 uM after 9 days by crystal violet staining based assay; type: functional, cell-based
RKO [42] = test: Induction of apoptosis in human RKO cells assessed as reduction in procaspase-3 expression after 24 to 72 hrs by Western blot analysis; type: functional, cell-based

For `COc1cc(/C=C2\CCC/C(=C\c3ccc(O)c(Cl)c3)C2=O)cc(OC)c1OC`, the Activity (RKO [1]) was 28%, the Activity (RKO [2]) was “Active” and the Activity (LoVo [3]) was “Active”. For the same molecule, the selectivity ratio at 72 h [4] was 1.8 to 9.9, the selectivity ratio at 72 h [5] was 1.8 to 9.9 and the Activity (RKO [6]) was “Active”. For the same molecule, the Activity (RKO [7]) was “Active”, the Activity (HT-29 [8]) was “Active” and the Activity (RKO [9]) was 23%. The Activity (RKO [10]) was “inactive”, the IC50 (LoVo [11]) was 1100 nM and the Activity (RKO [12]) was 50%. The IC50 (T84 [13]) was 1800 nM, the Activity (RKO [14]) was “Active” and the selectivity ratio at 72 h [15] was 1.8 to 9.9. It also gave an Activity (RKO [16]) of 21%, an IC50 (SW-620 [17]) of 800 nM and a selectivity ratio at 72 h [18] of 1.8 to 9.9. For the same molecule, the Activity (SW-620 [19]) was “Active”, the Activity (RKO [20]) was “Active” and the Activity (RKO [21]) was 52%. The selectivity ratio at 72 h [22] was 1.8 to 9.9, the Activity (RKO [23]) was “Active” and the Activity (T84 [24]) was “Active”. The IC50 (RKO [25]) was 700 nM, the Activity (RKO [26]) was “Active” and the Activity (RKO [27]) was 52%. For the same molecule, the Activity (RKO [28]) was 20%, the Activity (NCI-H508 [29]) was “Active” and the inhibition (RKO [30]) was “inactive”. For the same molecule, the Activity (RKO [31]) was 27%, the inhibition (RKO [32]) was “Dose-dependent effect” and the IC50 (NHDF) was 6.9 µM. The Activity (RKO [33]) was “Dose-dependent effect”, the IC50 (NCI-H508 [34]) was 4 µM and the selectivity ratio at 72 h [35] was 1.8 to 9.9. For the same molecule, the Activity (RKO [36]) was 27%, the Activity (RKO [37]) was “Dose-dependent effect” and the Activity (RKO [38]) was “Tde”. The Activity (RKO [39]) was “Active”, the IC50 (HT-29 [40]) was 3.4 µM and the inhibition (RKO [41]) was “Active”. The Activity (RKO [42]) was “Active”.
